These results are taken from article PMC7583830 (Molecules, 2020).

Where a SMILES comes first, the peptide text is derived from it. [ ]: non-standard residue; d: D form. The star is where a group is joined. DOTA = O=C(O)CN1CCN(CC(=O)O)CCN(CC(=O)*)CCN(CC(=O)O)CC1; 1Nal = N[C@@H](Cc1cccc2ccccc12)C(=O)O; NMeNle = CCCC[C@H](NC)C(=O)O

A short description of this series: Protein binding in human serum by size exclusion chromatography. In kind it is in vitro ADME. The conditions noted are these: 24 h incubation. As to the method: For protein binding assessment, the radiolabeled DOTA-peptides were incubated in fresh human serum at 37 °C (500 pmol/mL, n = 2). After 1, 4 and 24 h of incubation, two samples were taken for each time point and analyzed by Sephadex G-50 size-exclusion chromatography (GE Healthcare Illustra, Little Chalfont, UK). The percentage of protein binding was determined by measuring the column and the eluate with the gamma-counter.
(In general: SEC sorts molecules by how far they enter the pores of the column.)

As a reminder, the fraction unbound is free concentration divided by total concentration. Read a high fraction unbound as much free substance.

As to `CCCC[C@@H](C(=O)N[C@@H](CC(=O)O)C(=O)N[C@@H](Cc1cccc2ccccc12)C(N)=O)N(C)C(=O)[C@H](Cc1c[nH]c2ccccc12)NC(=O)CNC(=O)[C@H](Cc1ccc(O)cc1)NC(=O)[C@@H]1CCCN1C(=O)[C@@H](CCC(=O)O)NC(=O)CN1CCN(CC(=O)O)CCN(CC(=O)O)CCN(CC(=O)O)CC1` [[^177Lu]Lu-1, metal not drawn] ({DOTA}-[dE]PYGW[NMeNle]D[1Nal]-NH2), the fraction unbound was 0.622.
